# Article PMC11239830, “Synthetic macrolides overcoming MLSBK-resistant pathogens” (Cell Discovery, 2024)
# Read-outs that look alike come from different tables or passages of the source.
# Tests used:
# [1] = CCK-8 assay for cytotoxicity; assay type: cell-based, human; details: human, HEK293T cells, HEK293T cell viability
# Description: HepG2 cells (6 × 10^3) and HEK293T cells (4 × 10^3) were seeded into 96-well plates in 90 μL of DMEM medium containing 10% FBS per well. […] After overnight incubation, the test compound stock solution was diluted with DMEM medium containing 10% FBS to every target concentration, and 10 μL of each was added to each well. Three parallel experiments were set up for each compound. After incubation for 48 h, 10 μL of cell counting kit-8 (CCK-8) reagent was added to each well in sequence according to the manufacturer’s instructions. […] This experiment was independently repeated three times. The data were processed by GraphPad Prism.
# S. pyogenes = assay: MIC, broth microdilution; assay type: cell-based, Streptococcus pyogenes
# How it was run: (§1)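 Minimum inhibitory concentrations were measured by broth microdilution following CLSI guidelines. Plates were incubated at 37 °C for 16–20 h before results were read and recorded, and each determination was repeated at least three times.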
# S. aureus = assay: MIC, broth microdilution; assay type: cell-based, Staphylococcus aureus
# How it was run: as §1
# S. pneumoniae = assay: MIC, broth microdilution; assay type: cell-based, Streptococcus pneumoniae
# How it was run: as §1
# WT S. aureus ribosomes = assay: PURE in vitro translation inhibition assay; assay type: biochemical, Staphylococcus aureus; details: mean ± SD
# Description: (§2) To validate the in vitro activity of our compounds, we employed an in vitro reconstituted E. coli Protein synthesis Using a Recombinant Elements (PURE) translation system, substituting E. coli ribosomes with the purified S. aureus ribosomes.
# (§3) 5 μL of PURE reaction mix that translates a gene encoding the Nanoluc luciferase was set up in the presence or absence of tested compounds. Protein synthesis was initiated by incubating reactions at 37 °C for 60 min and stopped by placing on ice for 5 min. Luciferase activity was quantified using the Nano-Glo luciferase assay system and read on a GloMax 20/20 luminometer (Promega, USA). For each compound, the in vitro translation inhibition assay was performed in three biological triplicates over a range of concentrations from 0.001 μM to 1000 μM. A compound-free control was used to normalize luminescence measurements. The calculated luminescence percentages were plotted against compound concentrations on a semilog scale using GraphPad Prism.
# [2] = test system: 15B196 S. aureus ribosomes (A2058-methylated); assay: PURE in vitro translation inhibition assay; assay type: biochemical, Staphylococcus aureus; details: mean ± SD
# Description: as §2, §3
# M. catarrhalis = assay: MIC, broth microdilution; assay type: cell-based, Moraxella catarrhalis; details: Moraxella catarrhalis; M. catarrhalis 13L332, Ery-S; read-out: MIC
# Description: MICs were determined by the microdilution method according to the Clinical and Laboratory Standards Institute guidelines. Briefly, the stock solution of compounds and the reference antibiotics were diluted 2-fold in sterile 96-well plates with cation-adjusted Mueller-Hinton broth, and mixed with CAMHB-containing bacteria to give a final inoculum of 5 × 10^5 CFU/mL for broth microdilution experiments. […] Finally, the 96-well plates were incubated at 37 °C for 16–20 h to observe and record the results. The lowest concentration at which no bacterial growth could be observed visually was identified as the MICs of the compounds. The assay for MICs was replicated at least three times.
# [3] = Staphylococcus aureus, All S. aureus (24)
# [4] = Staphylococcus aureus, i-MLSB S. aureus (10)
structure (smiles),measurement,setting,value
"CC[C@H]1OC(=O)[C@H](C)C(=O)[C@H](C)[C@@H](O[C@@H]2O[C@H](C)C[C@H](N(C)C)[C@H]2O)[C@](C)(OC)C[C@@H](C)C(=O)[C@H](C)[C@H]2N(CCCCn3cnc(-c4cccnc4)c3)C(=O)O[C@]12C [telithromycin, reference compound]",CC50 at 48 h,[1],> 100 µM
same,MIC,"S. pyogenes; S. pyogenes 01-968, Clinical, i-ermB",0.016 µg/mL
same,MIC,"S. pyogenes; S. pyogenes 12-207, Clinical, mef",0.5 µg/mL
same,MIC,"S. pyogenes; S. pyogenes 21C303, Clinical, c-ermB",16 µg/mL
same,MIC,"S. pyogenes; S. pyogenes 21D184, Clinical, c-ermB",8 µg/mL
same,MIC,"S. pyogenes; S. pyogenes 21D199, Clinical, c-ermB",8 µg/mL
same,MIC,"S. pyogenes; S. pyogenes 21D200, Clinical, c-ermB",16 µg/mL
same,MIC,"S. pyogenes; S. pyogenes 21K003, Clinical, mef",1 µg/mL
same,MIC,"S. pyogenes; S. pyogenes 21M063, Clinical, c-ermB",16 µg/mL
same,MIC,"S. pyogenes; S. pyogenes 21W186, Clinical, c-ermTR",8 µg/mL
same,MIC,"S. aureus; S. aureus 15B196, Clinical, MRSA, c-ermB",128 µg/mL
same,MIC,"S. aureus; S. aureus 15B196, c-ermB",32 µg/mL
same,MIC,"S. aureus; S. aureus 21B200, Clinical, MRSA, c-ermB",> 256 µg/mL
same,MIC,"S. aureus; S. aureus 21B207, Clinical, MRSA, c-ermB",> 256 µg/mL
same,MIC,"S. aureus; S. aureus 21B212, Clinical, MSSA, i-ermC",0.25 µg/mL
same,MIC,"S. aureus; S. aureus 21C173, Clinical, MSSA, i-ermC",0.25 µg/mL
same,MIC,"S. aureus; S. aureus 21C174, Clinical, MSSA, c-ermB",> 256 µg/mL
same,MIC,"S. aureus; S. aureus 21C187, Clinical, MRSA, i-ermA",0.12 µg/mL
same,MIC,"S. aureus; S. aureus 21D112, Clinical, MSSA, c-ermB",> 256 µg/mL
same,MIC,"S. aureus; S. aureus 21D115, Clinical, MSSA, i-ermC",0.12 µg/mL
same,MIC,"S. aureus; S. aureus 21F198, Clinical, MRSA, c-ermB",> 256 µg/mL
same,MIC,"S. aureus; S. aureus 21F206, Clinical, MSSA, c-ermB",> 256 µg/mL
same,MIC,"S. aureus; S. aureus 21F207, Clinical, MRSA, i-ermC",0.25 µg/mL
same,MIC,"S. aureus; S. aureus 21K194, Clinical, MSSA, i-ermC",0.25 µg/mL
same,MIC,"S. aureus; S. aureus 21N354, Clinical, MRSA, c-ermB",128 µg/mL
same,MIC,"S. aureus; S. aureus 21P191, Clinical, MSSA, c-ermC",> 256 µg/mL
same,MIC,"S. aureus; S. aureus 21P404, Clinical, MSSA, i-ermC",0.5 µg/mL
same,MIC,"S. aureus; S. aureus 21P407, Clinical, MRSA, c-ermB",> 256 µg/mL
same,MIC,"S. aureus; S. aureus 21Q253, Clinical, MRSA, c-ermB",16 µg/mL
same,MIC,"S. aureus; S. aureus 21R216, Clinical, MSSA, c-ermC",> 256 µg/mL
same,MIC,"S. aureus; S. aureus 21T141, Clinical, MRSA, c-ermB",> 256 µg/mL
same,MIC,"S. aureus; S. aureus 21X388, Clinical, i-ermA (MRSA in Table S9, MSSA in Fig. 2a)",0.25 µg/mL
same,MIC,"S. aureus; S. aureus 21Y223, Clinical, MRSA, i-ermC",0.25 µg/mL
same,MIC,S. aureus; S. aureus ATCC29213,0.25 µg/mL
same,MIC,"S. aureus; S. aureus PU32, Clinical, MRSA, i-ermA",0.12 µg/mL
same,MIC50,S. aureus; [3],16 µg/mL
same,MIC90,S. aureus; [3],> 256 µg/mL
same,MIC50,"S. aureus; Staphylococcus aureus, MRSA, MRSA (13)",128 µg/mL
same,MIC50,"S. aureus; Staphylococcus aureus, MSSA, MSSA (10)",0.5 µg/mL
same,MIC,"S. aureus; Staphylococcus aureus, S. aureus 15B196, c-ermB, read-out: MIC",64 µg/mL
same,MIC50,"S. aureus; Staphylococcus aureus, c-MLSB (constitutive) S. aureus (13)",> 256 µg/mL
same,MIC50,S. aureus; [4],0.25 µg/mL
same,MIC90,S. aureus; [4],0.25 µg/mL
same,MIC90,"S. aureus; Staphylococcus aureus, MRSA (13)",> 256 µg/mL
same,MIC90,"S. aureus; Staphylococcus aureus, MSSA (10)",> 256 µg/mL
same,MIC,"S. pneumoniae; S. pneumoniae 21C315, Clinical, c-ermB",0.12 µg/mL
same,MIC,"S. pneumoniae; S. pneumoniae 21D016, Clinical, c-ermB, mef",0.25 µg/mL
same,MIC,"S. pneumoniae; S. pneumoniae 21D020, Clinical, c-ermB, mef",0.25 µg/mL
same,MIC,"S. pneumoniae; S. pneumoniae 21M277, Clinical, c-ermB",0.12 µg/mL
same,MIC,"S. pneumoniae; S. pneumoniae 21Q352, Clinical, i-MLSB",0.06 µg/mL
same,MIC,"S. pneumoniae; S. pneumoniae 21Q353, Clinical, i-MLSB",0.03 µg/mL
same,MIC,"S. pneumoniae; S. pneumoniae 21W257, Clinical, c-ermB, mef",0.12 µg/mL
same,MIC,"S. pneumoniae; S. pneumoniae 21X435, Clinical",0.016 µg/mL
same,MIC,S. pneumoniae; S. pneumoniae ATCC49619,0.008 µg/mL
same,MIC,"S. pneumoniae; S. pneumoniae PU09, mef",1 µg/mL
same,MIC,"S. pneumoniae; Streptococcus pneumoniae, S. pneumoniae 05O173, c-ermB, mef, read-out: MIC",4 µg/mL
same,MIC,"S. pneumoniae; Streptococcus pneumoniae, S. pneumoniae PU09, mef, read-out: MIC",0.5 µg/mL
same,IC50,WT S. aureus ribosomes,0.38 ± 0.13 µM
same,IC50,[2],> 10 µM
same,MIC,M. catarrhalis,0.25 µg/mL
